Tests used:
PGE2 = test: Equilibrium in vivo dialysis of rectum with radioimmunoassay of PGE2 (enema trial); parameters: species or system patients; conditions: for Concentrations of PGE2 in rectal lumen: median, enema groups irrespective of SAZ (+/-), SAZ line = no enema, with SAZ maintenance; for effect of treatment with enemas on PGE2 concentrations in the rectal lumen: whole group, active UC, 2-4 weeks, 5-ASA p>0.5, prednisolone p<0.05 (Wilcoxon)
Experimental: (§1) The study was carried out as a block-randomized, double-blind trial. Before entry, clinical disease activity was assessed, and equilibrium in vivo dialysis of rectum was performed before the assessment of endoscopic and histologic disease activity. […] Primary stratification was done for patients already on maintenance treatment with SAZ. At day 15 the equilibrium in vivo dialysis of rectum was repeated, and clinical, endoscopic, and histologic activities were reassessed. Patients in complete clinical and endoscopic remission discontinued treatment with enemas, whereas the remainder continued therapy for another 14 days. In all cases equilibrium in vivo dialysis of rectum and assessment of disease activity were repeated at day 29. Withdrawal criteria included intolerance to treatment or deterioration (severe disease, C3) requiring systemic glucocorticoids.
In vivo dialysis of rectum was performed after insertion of a 12-cm-long dialysis bag (volume 4 ml; Visking seamless cellulose tubing 8/32 filled with Rheomacrodex@; Pharmacia, Uppsala, Sweden) containing 10% dextran (mean mol wt 40,000) in saline into the emptied rectum. To obtain equilibrium with the fluid covering the surface of rectal mucosa, the dialysis bag was left for 4 h before its contents were emptied into a test tube, which was stored immediately at -20°C (rectal dialysate) for analysis within 2 wk.
Prostaglandin E2 was measured as previously described in detail (K. Bukhave, J. Rask-Madsen J, 'Prostaglandin E2 in jejunal fluids and its potential diagnostic value for selecting patients with indomethacin-sensitive diarrhoea', 1981 European Journal of Clinical Investigation, 11:191-7) by a radioimmunologic method validated by gas chromatography-mass spectrometry (K. Bukhave, K Green, J. Rask-Madsen, 'Comparison of radioimmunological determinations with gas chromatography mass spectrometry dosage', 1983 Biomedical Mass Spectrometry, 10:265-8). The method included purification by extraction with ethylacetate/cyclo- hexane (1:1) and chromatography on microcolumns of Sephadex LH-20 (Pharmacia AB, Sweden) before performing the radioimmunoassay itself on the eluate fraction containing PGE2.

[1] = system: ulcerative proctosigmoiditis; assay type: in vivo, patients
Experimental: For patients maintained on SAZ (1 g b.i.d.) this treatment was kept unchanged throughout the trial. No other drugs were given.
as §1
The clinical activity was based on a diary in which the number of bowel movements and the presence or absence of blood were registered by the patient and the objective findings were registered by the investigator. To minimize variation among observers each patient was examined on all study days by the same investigator, who was unaware of the results of the rectal dialyses.

[2] = clinical activity 2-3 (moderate-severe)
[3] = endoscopic activity 0 (inactive)
[4] = endoscopic activity 2 (moderate)
[5] = number of patients, enemas once daily 2-4 wk, 5-ASA n=13, prednisolone n=11
[6] = number of these patients on additional SAZ maintenance (figure in brackets)

SMILES | Concentrations of PGE2 in rectal lumen (PGE2; clinical activity 0 (inactive)) | Concentrations of PGE2 in rectal lumen (PGE2; clinical activity 1 (mild)) | Concentrations of PGE2 in rectal lumen (PGE2; [2]) | Concentrations of PGE2 in rectal lumen (PGE2; [3]) | Concentrations of PGE2 in rectal lumen (PGE2; endoscopic activity 1 (mild)) | Concentrations of PGE2 in rectal lumen (PGE2; [4]) | Concentrations of PGE2 in rectal lumen (PGE2; endoscopic activity 3 (severe)) | PGE2 levels in the rectal lumen (PGE2; only those patients responding to treatment) | effect of treatment with enemas on PGE2 concentrations in the rectal lumen (PGE2) | difficulties in retaining the enemas ([1]; human, in vivo) | Outcome of treatment: Unchanged or worse [1, 5] | Outcome of treatment: Unchanged or worse (on sulfasalazine) [1, 6] | Outcome of treatment: Clinical and endoscopic remission ([1]; number of patients, enemas once daily 2-4 wk, 5-ASA 1000 mg (n=13), prednisolone 25 mg (n=11)) | Outcome of treatment: Clinical but not endoscopic remission [1, 5] | Outcome of treatment: Clinical and endoscopic remission (on SAZ) ([1]; number of these patients on additional SAZ maintenance 2 g/day (figure in brackets)) | Outcome of treatment: Clinical but not endoscopic remission (on SAZ) [1, 6]
Nc1ccc(O)c(C(=O)O)c1 [5-ASA, 5-amino-salicylic acid] | 0.71(n=7) (0.18-6.0) ng/ml | 24(n=5) (2.5-58) ng/ml | 33(n=8) (14-120) ng/ml | 0.75(n=3) (0.18-3.7) ng/ml | 5.5(n=4) (0.29-6.2) ng/ml | 24(n=8) (2.5-58) ng/ml | 31(n=5) (20-120) ng/ml | decreased toward control levels | No significant effects | 2 | 6 | 3 |  |  |  | 
C[C@]12C=CC(=O)C=C1CC[C@@H]1[C@@H]2[C@@H](O)C[C@@]2(C)[C@H]1CC[C@]2(O)C(=O)CO [Prednisolone, prednisolone] | 1.6(n=9) (0.16-5.0) ng/ml | 5.4(n=6) (0.58-42) ng/ml | 9.5(n=3) (5.9-12) ng/ml | 0.82(n=8) (0.16-5.0) ng/ml | 2.8(n=7) (0.57-3.9) ng/ml | 10.5(n=3) (5.5-42) ng/ml |  |  | inhibited PGE2 concentrations significantly |  | 2 (2) | 2 (2) | 8 | 1 (1) | 3 | 1 (1)

Reference: patent EP0393104B1, “MEASUREMENT OF PGE 2 (PROSTAGLANDIN E 2) LEVELS IN PATIENTS WITH CHRONIC INFLAMMATORY BOWEL DISEASE” (priority 1987, dated 1989)
